From PubChem BioAssay (NCI)
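Five concentrations, 48 hours, 96-well plates. TGI marks complete inhibition of growth.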

Columns and labels:
Experiment in all cases: DTP human tumour cell line panel, 48 h
A498 renal = system: A498 renal
SNB-19 CNS = system: SNB-19 CNS
M14 melanoma = system: M14 melanoma
SF-295 CNS = system: SF-295 CNS
BT-549 breast = system: BT-549 breast
DU-145 prostate = system: DU-145 prostate
TK-10 renal = system: TK-10 renal
ACHN renal = system: ACHN renal
OVCAR-3 ovarian = system: OVCAR-3 ovarian
OVCAR-8 ovarian = system: OVCAR-8 ovarian
UACC-62 melanoma = system: UACC-62 melanoma
U251 CNS = system: U251 CNS
COLO 205 colon = system: COLO 205 colon
EKVX NSCLC = system: EKVX NSCLC
RXF 393 renal = system: RXF 393 renal
UO-31 renal = system: UO-31 renal
SF-268 CNS = system: SF-268 CNS
HCT-15 colon = system: HCT-15 colon
NCI-H522 lung = system: NCI-H522 lung
SK-MEL-2 melanoma = system: SK-MEL-2 melanoma
HCT-116 colon = system: HCT-116 colon
HOP-62 NSCLC = system: HOP-62 NSCLC
OVCAR-5 ovarian = system: OVCAR-5 ovarian
HCC-2998 colon = system: HCC-2998 colon
CCRF-CEM leukemia = system: CCRF-CEM leukemia
UACC-257 melanoma = system: UACC-257 melanoma
KM12 colon = system: KM12 colon
HT29 colon = system: HT29 colon
IGROV1 ovarian = system: IGROV1 ovarian
SNB-75 CNS = system: SNB-75 CNS
MCF7 breast = system: MCF7 breast
OVCAR-4 ovarian = system: OVCAR-4 ovarian
786-0 renal = system: 786-0 renal
MALME-3M melanoma = system: MALME-3M melanoma
SK-MEL-28 melanoma = system: SK-MEL-28 melanoma
SN12C renal = system: SN12C renal
PC-3 prostate = system: PC-3 prostate
A549 NSCLC = system: A549 NSCLC
K-562 leukemia = system: K-562 leukemia
NCI-H23 lung = system: NCI-H23 lung
NCI-H226 lung = system: NCI-H226 lung
HOP-92 NSCLC = system: HOP-92 NSCLC
HS 578T breast = system: HS 578T breast
CAKI-1 renal = system: CAKI-1 renal
T-47D breast = system: T-47D breast
HL-60(TB) leukemia = system: HL-60(TB) leukemia
MOLT-4 leukemia = system: MOLT-4 leukemia
SK-MEL-5 melanoma = system: SK-MEL-5 melanoma
SF-539 CNS = system: SF-539 CNS
MDA-N = system: MDA-N
LOX IMVI melanoma = system: LOX IMVI melanoma
MDA-MB-231 breast = system: MDA-MB-231 breast
SR leukemia = system: SR leukemia
SK-OV-3 ovarian = system: SK-OV-3 ovarian
NCI-H460 lung = system: NCI-H460 lung
NCI/ADR-RES ovarian = system: NCI/ADR-RES ovarian
MDA-MB-435 = system: MDA-MB-435
SW-620 colon = system: SW-620 colon
RPMI-8226 leukemia = system: RPMI-8226 leukemia

Structure (SMILES): COc1ccc(N=C2C(=O)C3=C(OC(C)(C)CC3)c3ccccc32)cc1
- TGI (A498 renal): 14.7 µM
- TGI (SNB-19 CNS): 2.36 µM
- TGI (M14 melanoma): 1.5 µM
- TGI (SF-295 CNS): 1.56 µM
- TGI (BT-549 breast): 2.58 µM
- TGI (DU-145 prostate): 1.57 µM
- TGI (TK-10 renal): 7.93 µM
- TGI (ACHN renal): 1.57 µM
- TGI (OVCAR-3 ovarian): 1.5 µM
- TGI (OVCAR-8 ovarian): 8.37 µM
- TGI (UACC-62 melanoma): 1.74 µM
- TGI (U251 CNS): 1.65 µM
- TGI (COLO 205 colon): 5.8 µM
- TGI (EKVX NSCLC): 1.86 µM
- TGI (RXF 393 renal): 2.43 µM
- TGI (UO-31 renal): 1.69 µM
- TGI (SF-268 CNS): 10.7 µM
- TGI (HCT-15 colon): 10.8 µM
- TGI (NCI-H522 lung): 2.45 µM
- TGI (SK-MEL-2 melanoma): 2.46 µM
- TGI (HCT-116 colon): 1.48 µM
- TGI (HOP-62 NSCLC): 1.89 µM
- TGI (OVCAR-5 ovarian): 6.14 µM
- TGI (HCC-2998 colon): 3.96 µM
- TGI (CCRF-CEM leukemia): 4.43 µM
- TGI (UACC-257 melanoma): 2.09 µM
- TGI (KM12 colon): 1.97 µM
- TGI (HT29 colon): 1.57 µM
- TGI (IGROV1 ovarian): 11.2 µM
- TGI (SNB-75 CNS): 1.96 µM
- TGI (MCF7 breast): 1.87 µM
- TGI (OVCAR-4 ovarian): 1.51 µM
- TGI (786-0 renal): 1.99 µM
- TGI (MALME-3M melanoma): 1.59 µM
- TGI (SK-MEL-28 melanoma): 2.48 µM
- TGI (SN12C renal): 1.63 µM
- TGI (PC-3 prostate): 5.49 µM
- TGI (A549 NSCLC): 1.94 µM
- TGI (K-562 leukemia): 2.24 µM
- TGI (NCI-H23 lung): 13 µM
- TGI (NCI-H226 lung): 20.4 µM
- TGI (HOP-92 NSCLC): 22.2 µM
- TGI (HS 578T breast): 48.8 µM
- TGI (CAKI-1 renal): 1.84 µM
- TGI (T-47D breast): 2.2 µM
- TGI (HL-60(TB) leukemia): 4.38 µM
- TGI (MOLT-4 leukemia): 5.29 µM
- TGI (SK-MEL-5 melanoma): 1.53 µM
- TGI (SF-539 CNS): 0.806 µM
- TGI (MDA-N): 1.26 µM
- TGI (LOX IMVI melanoma): 10.3 µM
- TGI (MDA-MB-231 breast): 5.44 µM
- TGI (SR leukemia): 3.44 µM
- TGI (SK-OV-3 ovarian): 4.4 µM
- TGI (NCI-H460 lung): 5.72 µM
- TGI (NCI/ADR-RES ovarian): 16.7 µM
- TGI (MDA-MB-435): 0.502 µM
- TGI (SW-620 colon): 1.56 µM

Structure (SMILES): NC1CC(=O)c2c(Cl)sc(Cl)c21 (configuration not stated)
- TGI (A498 renal): 31.1 µM
- TGI (SNB-19 CNS): 42.2 µM
- TGI (M14 melanoma): 35.4 µM
- TGI (SF-295 CNS): 31.3 µM
- TGI (BT-549 breast): 10.7 µM
- TGI (DU-145 prostate): 16 µM
- TGI (TK-10 renal): 6.26 µM
- TGI (ACHN renal): 6.14 µM
- TGI (OVCAR-3 ovarian): 24 µM
- TGI (OVCAR-8 ovarian): 20 µM
- TGI (UACC-62 melanoma): 7.78 µM
- TGI (U251 CNS): 21.5 µM
- TGI (COLO 205 colon): 2.57 µM
- TGI (EKVX NSCLC): 5.07 µM
- TGI (RPMI-8226 leukemia): 7.76 µM
- TGI (RXF 393 renal): 2.95 µM
- TGI (UO-31 renal): 20.3 µM
- TGI (SF-268 CNS): 67.4 µM
- TGI (HCT-15 colon): 3.94 µM
- TGI (NCI-H522 lung): 2.89 µM
- TGI (SK-MEL-2 melanoma): 25 µM
- TGI (HCT-116 colon): 4.49 µM
- TGI (HOP-62 NSCLC): 34 µM
- TGI (OVCAR-5 ovarian): 42.9 µM
- TGI (HCC-2998 colon): 22.7 µM
- TGI (CCRF-CEM leukemia): 2.94 µM
- TGI (UACC-257 melanoma): 7.27 µM
- TGI (KM12 colon): 12.8 µM
- TGI (HT29 colon): 14.1 µM
- TGI (IGROV1 ovarian): 9.84 µM
- TGI (SNB-75 CNS): 26.1 µM
- TGI (MCF7 breast): 7.9 µM
- TGI (OVCAR-4 ovarian): 16 µM
- TGI (786-0 renal): 2.87 µM
- TGI (MALME-3M melanoma): 4.66 µM
- TGI (SK-MEL-28 melanoma): 4 µM
- TGI (SN12C renal): 14.4 µM
- TGI (PC-3 prostate): 18 µM
- TGI (A549 NSCLC): 35.3 µM
- TGI (K-562 leukemia): 75 µM
- TGI (NCI-H23 lung): 25 µM
- TGI (NCI-H226 lung): 30.9 µM
- TGI (HOP-92 NSCLC): 2.91 µM
- TGI (HS 578T breast): 70.4 µM
- TGI (CAKI-1 renal): 6.1 µM
- TGI (T-47D breast): 4.96 µM
- TGI (HL-60(TB) leukemia): 6.09 µM
- TGI (MOLT-4 leukemia): 9.37 µM
- TGI (SK-MEL-5 melanoma): 22.9 µM
- TGI (SF-539 CNS): 8.85 µM
- TGI (MDA-N): 16.4 µM
- TGI (LOX IMVI melanoma): 4.81 µM
- TGI (MDA-MB-231 breast): 6.39 µM
- TGI (SR leukemia): 1.99 µM
- TGI (SK-OV-3 ovarian): 26.4 µM
- TGI (NCI-H460 lung): 33.7 µM
- TGI (NCI/ADR-RES ovarian): 49.9 µM
- TGI (MDA-MB-435): 15.5 µM
- TGI (SW-620 colon): 3.73 µM
